{
  "source": "patent US7323489B2",
  "about": "“Proline ester and preparation containing the same for percutaneous administration” (Toaeiyo Ltd., priority 2002, dated 2008)",
  "key": {"[1]": {"test_system": "three-dimensional cultured human skin model (LSE-high, Toyobo Co., Ltd.)", "assay": "Metabolism test by use of cultured human skin", "assay_type": "in vitro ADME", "conditions": "receptor phase PBS pH 7.4, 24 hours, 1.0 mass % in isopropyl myristate, 200 μL applied, 37° C.", "method": "A sample of a three-dimensional cultured human skin model (LSE-high, Toyobo Co., Ltd.) was set in a vertical diffusion cell whose temperature was maintained at 37° C., and the receptor phase of the cell was filled with 7 mL isotonic phosphate buffer (PBS, pH 7.4). The cell was allowed to stand for one hour. Each of Inventive Compounds 1 to 3 and enalapril (serving as a Comparative Example) was dissolved or suspended in isopropyl myristate so as to attain a concentration of 1.0 mass %. The solution (200 μL) was applied to the skin sample, whereby the test started. When 24 hours had passed after the test started, the concentrations of proline esters or enalapril (i.e., a prodrug of enalaprilat) which remained unchanged, and the transformed product enalaprilat contained in PBS in the receptor phase were determined through HPLC. From the obtained data, concentration ratio of “proline esters or enalapril”: “enalaprilat” was calculated (presence ratio)."}, "[2]": {"assay": "Stability test (storage in isopropyl myristate, HPLC peak area ratio)", "assay_type": "physicochemical", "method": "About 5 mg of each of Inventive Compounds 1 to 5 and enalapril was put in a glass vial. Isopropyl myristate (100 μL) was added, to thereby yield a solution (or suspension). The vial was tightly sealed and stored in a 60° C. thermostatic chamber for one week. Methanol was added to the solution contained in the vial until the total volume of the solution mixture became 100 mL. The resultant solution was employed as a test solution to be subjected to an HPLC analysis. Peak area ratio (expressed by percentage) of each compound with respect to a sum of all the obtained peak areas was calculated."}, "[3]": {"conditions": "in the skin and in the plasma; cited from earlier work"}, "[4]": {"conditions": "storage at 60° C. for 1 week, HPLC peak area ratio"}},
  "data": [
    {"smiles": "C[C@H](N[C@@H](CCc1ccccc1)C(=O)O)C(=O)N1CCC[C@H]1C(=O)OCCO", "note": "[Inventive Compound 1, 1-[N-[(1S)-1-Carboxy-3-phenylpropyl]-L-alanyl]-L-proline 2-hydroxyethyl ester]", "values": [
      {"measurement": "Presence ratio: proline ester or enalapril (unchanged) part of concentration ratio", "setting": "[1]", "value": 23.5},
      {"measurement": "Area ratio: Closed ring product", "setting": "[2]; [4]", "value": 0.0, "unit": "%"},
      {"measurement": "Area ratio: Enalaprilat", "setting": "[2]; [4]", "value": 0.0, "unit": "%"},
      {"measurement": "Area ratio: Proline ester compound", "setting": "[2]; [4]", "value": 91.8, "unit": "%"}
    ]},
    {"smiles": "C[C@H](N[C@@H](CCc1ccccc1)C(=O)O)C(=O)N1CCC[C@H]1C(=O)OCCCCO", "note": "[Inventive Compound 3, 1-[N-[(1S)-1-Carboxy-3-phenylpropyl)-L-alanyl]-L-proline 4-hydroxybutyl ester]", "values": [
      {"measurement": "Presence ratio: proline ester or enalapril (unchanged) part of concentration ratio", "setting": "[1]", "value": 30.4},
      {"measurement": "Area ratio: Closed ring product", "setting": "[2]; [4]", "value": 0.0, "unit": "%"},
      {"measurement": "Area ratio: Enalaprilat", "setting": "[2]; [4]", "value": 0.0, "unit": "%"},
      {"measurement": "Area ratio: Proline ester compound", "setting": "[2]; [4]", "value": 94.4, "unit": "%"}
    ]},
    {"smiles": "C[C@H](N[C@@H](CCc1ccccc1)C(=O)O)C(=O)N1CCC[C@H]1C(=O)OCCCO", "note": "[Inventive Compound 2, 1-[N-[(1S)-1-Carboxy-3-phenylpropyl]-L-alanyl]-L-proline 3-hydroxypropyl ester]", "values": [
      {"measurement": "Presence ratio: proline ester or enalapril (unchanged) part of concentration ratio", "setting": "[1]", "value": 36.3},
      {"measurement": "Area ratio: Closed ring product", "setting": "[2]; [4]", "value": 0.0, "unit": "%"},
      {"measurement": "Area ratio: Enalaprilat", "setting": "[2]; [4]", "value": 0.0, "unit": "%"},
      {"measurement": "Area ratio: Proline ester compound", "setting": "[2]; [4]", "value": 96.7, "unit": "%"}
    ]},
    {"smiles": "CCOC(=O)[C@H](CCc1ccccc1)N[C@@H](C)C(=O)N1CCC[C@H]1C(=O)O", "note": "[Enalapril, reference compound]", "values": [
      {"measurement": "Presence ratio: proline ester or enalapril (unchanged) part of concentration ratio", "setting": "[1]", "value": 98.8},
      {"measurement": "Conversion of percutaneously absorbed enalapril to enalaprilat (in words)", "setting": "[3]", "value": "not converted to enalaprilat"},
      {"measurement": "Stability on storage (in words)", "setting": "[2]; 60° C., one week", "value": "completely degraded"},
      {"measurement": "Area ratio: Closed ring product", "setting": "[2]; [4]", "value": 48.4, "unit": "%"},
      {"measurement": "Area ratio: Enalapril", "setting": "[2]; [4]", "value": 0.0, "unit": "%"},
      {"measurement": "Area ratio: Enalaprilat", "setting": "[2]; [4]", "value": 0.0, "unit": "%"}
    ]},
    {"smiles": "COCCOC(=O)[C@@H]1CCCN1C(=O)[C@H](C)N[C@@H](CCc1ccccc1)C(=O)O", "note": "[Inventive Compound 4, 1-[N-[(1S)-1-Carboxy-3-phenylpropyl]-L-alanyl]-L-proline 2-methoxyethyl ester]", "values": [
      {"measurement": "Area ratio: Closed ring product", "setting": "[2]; [4]", "value": 0.0, "unit": "%"},
      {"measurement": "Area ratio: Enalaprilat", "setting": "[2]; [4]", "value": 0.0, "unit": "%"},
      {"measurement": "Area ratio: Proline ester compound", "setting": "[2]; [4]", "value": 99.1, "unit": "%"}
    ]},
    {"smiles": "COCCOCCOC(=O)[C@@H]1CCCN1C(=O)[C@H](C)N[C@@H](CCc1ccccc1)C(=O)O", "note": "[Inventive Compound 5, 1-[N-[(1S)-1-Carboxy-3-phenylpropyl]-L-alanyl]-L-proline 2-(2-methoxyethoxy)ethyl ester]", "values": [
      {"measurement": "Area ratio: Closed ring product", "setting": "[2]; [4]", "value": 0.0, "unit": "%"},
      {"measurement": "Area ratio: Enalaprilat", "setting": "[2]; [4]", "value": 0.0, "unit": "%"},
      {"measurement": "Area ratio: Proline ester compound", "setting": "[2]; [4]", "value": 94.2, "unit": "%"}
    ]}
  ]
}
